One data set has as its target recombinant VCP (Homo sapiens, UniProt P55072). Briefly: ATPase activity of recombinant VCP in vitro (modified molybdate assay, [γ-32P]ATP). It counts as biochemical. As to the method:
(§1) We measured ATPase activities by modifying the molybdate assay, which was as described previously. In the assay, 1 μg of whole cell soluble lysate of neuronally differentiated PC12 cells, or 500 ng recombinant VCP protein, was incubated in 20 μl of the ATPase assay buffer (20 mM HEPES (pH 7.4), 50 mM KCl, 5 mM MgCl2) with 100 μM [γ-^32P]ATP (18.5 GBq/mmol) (PerkinElmer) at 37°C for 20 min. After incubation, the reaction was quenched by addition of 200 μl of 8% ice-cold trichloroacetic acid solution with 1 mM K2HPO4, and then 50 μl of solution A (3.75% ammonium molybdate, 0.02 M silicotungstic acid in 3 N H2SO4) and 300 μl of n-butyl acetate were added to the reaction. The samples were mixed well and centrifuged at 12,000 × g for 1 min. Then, 200 μl aliquots from the upper organic phases were taken and their radioactivity was determined with a liquid scintillation counter for β-radiation, which determined the amounts of ^32P released.

Data set [1] relates to whole cell soluble lysate of neuronally differentiated PC12 cells. Briefly: total ATPase activity in clarified whole cell lysates. It counts as biochemical. As to the method:
Figure 3 Effects of KUSs on ATPase activities, ATP levels, and acetyl-CoA levels. (a) Inhibition of ATPase activity in clarified whole cell lysates by KUS121, KUS187, and KUS94, but not KUS11. Total ATPase activities in clarified whole cell lysates from differentiated PC12 cells were measured in the absence and presence of KUSs. Relative ATPase activities are shown with values in the absence of KUS (D: DMSO) set at 100%. (b) HeLa cells were cultured in medium with low glucose (0.25 g/l) for 20 hours, with or without KUSs, and ATP levels were measured with luciferase assays. (c) HeLa cells were cultured in medium with low glucose (0.25 g/l) for 20 hours, with or without KUSs, and acetyl-CoA levels were measured. * P < 0.05, ** P < 0.01, *** P < 0.001 vs. DMSO control (Dunnett's test, n = 3).
as §1

Another data set concerns cellular VCP functions. Kind of data set: immunoblot of ubiquitinated proteins, CHOP (ER stress) and LC3 (autophagy) in cultured cells. In kind it is cell-based. From the text: (§2) Figure 1 Structures and characterization of KUSs, novel VCP modulators. (a) Structures and IC50 values of KUS11, KUS31, KUS69, KUS94, KUS121, and KUS187. […] (b) ATPase activity assays of recombinant human […], comparing KUSs and DBeQ. (c) Immunoblot analysis of ubiquitinated proteins, an ER stress marker (CHOP), and an autophagy indicator (LC3), comparing KUSs and DBeQ. As a control, MG132, a proteasome inhibitor, was used for the analysis. Actin served as a loading control. Complete scans of the different blots are presented in Supplementary Fig. 7. (d) Comparison of KUSs and DBeQ for cell death-inducing activities. HeLa cells were treated with 50 μM DBeQ or KUSs for 24 hours. […]

Data set [2] concerns HeLa cells. Kind of data set: cell death-inducing activity. It counts as cell-based. The following applies: 50 μM, 24 hours.
Text: as §2

For data set [3], the system named is essentially all tested cultured cells. Kind of data set: cellular toxicity on cultured cells. It counts as cell-based. The note with it: up to 50 μM.
Data set [4] relates to HeLa cells. Briefly: immunocytochemistry of laminin γ1 aggregation in tunicamycin-treated cells. It counts as cell-based. The note with it: HeLa, Tm 0.5 μg/ml, 5 hours. How it is done:
(§3) Figure 4 KUSs and ATP each prevented a decrease of ATP levels and ameliorated ER stress in tunicamycin-treated cells. (a) Immunocytochemical analyses of HeLa cells by an anti-laminin γ1 antibody. HeLa cells were treated with 0.5 μg/ml of tunicamycin (Tm) for 5 hours in the presence of KUSs (50 μM), ATP (0.1, 0.3, and 1 mM), methylpyruvate (MePyr) (3 and 10 mM), or vehicle alone (DMSO). Then, cells were fixed and subjected to immunocytochemical analyses. Normally growing HeLa cells were also analyzed (Control). Scale bar, 10 μm. (b) Measurements of the relative amounts of ATP per cell. HeLa cells were treated with tunicamycin (Tm, 0.5 μg/ml) for 24 hours in the presence of KUSs (50 μM) or ATP (0.1 and 1 mM), or vehicle alone (DMSO), and were harvested. Then, ATP amounts from 1.5 × 10^5 cells were measured. * P < 0.05, ** P < 0.01. Error bars indicate SD. (c) Western blot analyses on CHOP. HeLa cells were treated with 0.5 μg/ml of tunicamycin for 5 hours in the presence of KUSs (50 μM), ATP (0.1, 0.3, and 1 mM), methylpyruvate (MePyr) (3 and 10 mM), or vehicle alone (-). Then, cells were harvested and subjected to western blot analyses. Actin served as a loading control. Complete scans of the different blots are presented in Supplementary Fig. 9.

In the next data set the test system is rd10 mice. Kind of data set: rd10 mouse model of retinitis pigmentosa (SD-OCT, electroretinogram, histology, electron microscopy, western blot). In kind it is in vivo. The following applies: 21-day-old. As to the method:
Starting 7 days after birth, KUS121 or KUS187 was administered daily (50 mg/kg) by intraperitoneal injection. […] To test the visual function of the mice, dark-adapted electroretinograms were recorded. The amplitude of the a-wave, which represents visual function of photoreceptors, was smaller in the control mice than in the KUS-treated mice (Supplementary Fig. 5b and c). The peak latency of the a-wave, which negatively correlates with visual function of photoreceptors, was delayed in the control mice as compared with the KUS-treated mice (Supplementary Fig. 5d). At age 25 days, the thinning of the outer nuclear layer (ONL) was clearly observed in the control mice (Fig. 5a). The outer nuclear layer and the junction line between the inner segment and outer segment (arrow heads in Fig. 5a), which is generally considered to be positively associated with visual function, were clearly detected in the KUS-treated but not in control mice. […] At age 29 days, the photoreceptor layer was barely detected in SD-OCT images, and electroretinogram records were almost flat in control mice. […]
Spectral-domain optical coherence tomography (SD-OCT) examinations using Multiline OCT (Heidelberg Engineering, Heidelberg, Germany) were performed[33] in rd10 mice at ages of 21, 25, 29, and 33days. Total retinal thickness (from inner limiting membrane to Bruch membrane) in rd10 mice was measured using volume scan images[33] within a circle 0.366 mm in diameter, the center of which was adjusted to the center of the optic nerve head. […]
Electroretinogram recording was performed to assess the visual function of rd10 mice at ages of 21, 25, 29, and 33 days. […] Electroretinograms were recorded using a gold loop corneal electrode with a light-emitting diode (Mayo Corp., Inazawa, Japan). […] The electroretinogram response signals were amplified, digitized at 10 kHz with a band-pass filter of 0.3 to 500 Hz, and analyzed (PowerLab 2/25; AD instruments, New South Wales, Australia). […]

Data set [5] deals with tunicamycin-treated HeLa cells. Kind of data set: western blot of ER stress markers and phospho-Akt in tunicamycin-treated cells. It counts as cell-based. The following applies: Tm 0.5 μg/ml, 5 hours, 3 to 10 mM methylpyruvate. As to the method:
Figure 2 Prevention of cell death and ER stress by KUSs. (a) Photographs of HeLa cells, cultured with DMSO (DMSO) or KUSs (KUS94, KUS121, and KUS187, 20 μM each) for 41 hours in low glucose (0.2 g/l) medium. Scale bar, 100 μm. (b–e) WST (water-soluble tetrazolium salts) values reflecting relative live cell numbers are shown, as optical density (OD) at 450 nm. Error bars indicate SD. (b) WST values of HeLa cells, cultured in low glucose (0.2 g/l) with DMSO (control) or KUSs (50 μM for KUS121; 20 μM for KUS69, KUS94, and KUS187, n = 3) for 41 hours. (c) Cell viability, indicated by WST values of HeLa cells, cultured with tunicamycin (Tm) (0.2 μg/ml) for 41 hours with KUSs (20 μM each, n = 3). (d) WST values of HEK293 cells, cultured under serum-free conditions for 65 hours with DMSO (control) or KUSs (20 μM each, n = 3). *** P < 0.001, vs. DMSO control (Dunnett's test). (e) WST values of HeLa cells, cultured in low glucose (0.2 g/l) medium with different concentrations of KUS121 (5, 10, 20, and 50 μM, n = 3) for 41 hours. ** P = 0.008, *** P < 0.001, vs. DMSO control (Dunnett's test). […]
Figure 4 KUSs and ATP each prevented a decrease of ATP levels and ameliorated ER stress in tunicamycin-treated cells. […] Normally growing HeLa cells were also analyzed (Control). […] Then, ATP amounts from 1.5 × 10^5 cells were measured. * P < 0.05, ** P < 0.01. […]

The test system of data set [6] is HeLa cells. Briefly: relative ATP amounts per cell in tunicamycin-treated cells. In kind it is cell-based. The following applies: Tm 0.5 μg/ml, 24 hours, KUSs 50 μM. How it is done: as §3

“And” between values parts separate entries of the source, which are not always exact repeats. Identical values can stand only once.

recombinant VCP, sequence (P55072 whole entry, species assumed): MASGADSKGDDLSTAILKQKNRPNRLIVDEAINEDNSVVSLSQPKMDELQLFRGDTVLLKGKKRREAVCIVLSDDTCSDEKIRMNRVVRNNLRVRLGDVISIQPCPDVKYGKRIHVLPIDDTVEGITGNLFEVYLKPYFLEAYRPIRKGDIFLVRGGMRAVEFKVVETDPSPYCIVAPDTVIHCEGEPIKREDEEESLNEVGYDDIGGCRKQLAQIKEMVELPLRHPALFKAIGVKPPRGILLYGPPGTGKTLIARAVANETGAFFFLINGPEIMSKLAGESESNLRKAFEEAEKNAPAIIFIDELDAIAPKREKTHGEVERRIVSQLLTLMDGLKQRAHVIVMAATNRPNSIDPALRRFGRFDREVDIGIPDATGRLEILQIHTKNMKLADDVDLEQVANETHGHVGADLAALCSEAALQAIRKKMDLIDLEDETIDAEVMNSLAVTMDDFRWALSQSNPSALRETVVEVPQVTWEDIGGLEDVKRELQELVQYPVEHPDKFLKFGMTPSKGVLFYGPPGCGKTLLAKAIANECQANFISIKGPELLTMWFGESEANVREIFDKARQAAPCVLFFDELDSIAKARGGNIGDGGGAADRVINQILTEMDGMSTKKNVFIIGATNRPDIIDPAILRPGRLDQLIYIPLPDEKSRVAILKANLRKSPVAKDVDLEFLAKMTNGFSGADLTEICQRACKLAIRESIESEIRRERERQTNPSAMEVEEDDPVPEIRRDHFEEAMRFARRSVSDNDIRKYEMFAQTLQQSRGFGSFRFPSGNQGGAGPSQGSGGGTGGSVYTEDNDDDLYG

Turning to `Nc1c(/N=N/c2ccc(-c3cccc4c3sc3ccccc34)nc2)cc(S(=O)(=O)O)c2ccccc12` [KUS94], on recombinant VCP, the IC50 came to 1000 nM. In addition, in data set [1] (1 μM compound), the “lowering of total ATPase activity” value is on record as “approximately 20%”. The “induction of accumulation of ubiquitinated proteins, ER stress (CHOP), autophagy (LC3)” value (“induction of accumulation … (LC3)” below) with cellular VCP functions is “did not induce any of these phenotypes”. Further, the “induction of cell death” value in the data set on HeLa cells [2] is reported as “did not induce any of these phenotypes”. In [3], the apparent cellular toxicity result is listed as “did not manifest any apparent cellular toxicity”. Also, in the data set on HeLa cells [4] (50 μM KUS), the “aggregation of laminin γ1” value was “clearly prevented the aggregation of laminin γ1”.
As for `CCCCOc1c(C=O)cc(C)cc1-c1ccc(/N=N/c2cc(S(=O)(=O)O)c3ccccc3c2N)cn1` [KUS187], the IC50 on recombinant VCP is 200 to 300 nM and 186 nM. Also, the “lowering of total ATPase activity” value in data set [1] (100 nM compound) was “approximately 20%”; in data set [1] (1 μM compound), around 40%. The “induction of accumulation … (LC3)” value in the data set with cellular VCP functions was “did not induce any of these phenotypes”. Moreover, the “induction of cell death” value in the data set with HeLa cells [2] is reported as “did not induce any of these phenotypes”. Also, in data set [3], the apparent cellular toxicity entry was “did not manifest any apparent cellular toxicity”. Also, the “aggregation of laminin γ1” value in the data set on HeLa cells [4] (50 μM KUS) is on record as “clearly prevented the aggregation of laminin γ1”. The “outer segment morphology by electron microscopy” value in the data set with rd10 mice is on record as “well preserved”. Besides, the “mean amplitude of the a-wave, dark-adapted electroretinogram” value with rd10 mice (50 mg/kg daily i.p. from day 7, vs control) is given as “larger than that in control rd10 mice”.
Turning to `Nc1c(/N=N/c2ccc(-c3ccccc3)nc2)cc(S(=O)(=O)O)c2ccccc12` [KUS31], the IC50 at recombinant VCP is 229 nM. The “induction of accumulation … (LC3)” value with cellular VCP functions is recorded as “did not induce any of these phenotypes”. Moreover, the “induction of cell death” value in the data set with HeLa cells [2] was “did not induce any of these phenotypes”. The apparent cellular toxicity result in [3] is reported as “did not manifest any apparent cellular toxicity”.
For `Nc1c(/N=N/c2ccc(-c3ccccc3-c3ccccc3)nc2)cc(S(=O)(=O)O)c2ccccc12` [KUS69], the IC50 on recombinant VCP was 116 nM. Besides, the “induction of accumulation … (LC3)” value with cellular VCP functions is “did not induce any of these phenotypes”. Moreover, in the data set with HeLa cells [2], the “induction of cell death” value is listed as “did not induce any of these phenotypes”. Further, the apparent cellular toxicity result in data set [3] is on record as “did not manifest any apparent cellular toxicity”. The “aggregation of laminin γ1” value in the data set with HeLa cells [4] (50 μM KUS) is recorded as “clearly prevented the aggregation of laminin γ1”.
In the case of `COC(=O)C(C)=O` [methylpyruvate], the “induction of ER stress (CHOP induction)” value in data set [5] is on record as “dampen the induction of ER stress”. For the same compound, the “aggregation of laminin γ1” value in the data set on HeLa cells [4] (3 to 10 mM methylpyruvate) is reported as “ineffective in preventing the aggregation of laminin γ1”.
Regarding `Nc1ccc2cc(S(=O)(=O)O)ccc2c1/N=N/c1ccccc1` [KUS11], the IC50 on recombinant VCP was above 100000 nM. Further, the “inhibition of total ATPase activity in clarified lysates” value in [1] is “did not show any significant inhibition”. Besides, the “decrease of ATP levels in tunicamycin-treated cells” value in the data set with HeLa cells [6] is “unable to prevent the tunicamycin-elicited ATP decrease”.

For the origin of these results see publication PMC4122966, “Novel VCP modulators mitigate major pathologies of rd10, a mouse model of retinitis pigmentosa” (Scientific Reports, 2014).
